Results reported in patent US20080014199A1, “Assessing Cancer And Vimentin” (MAYO FOUNDATION FOR MEDICAL EDUCATION AND RESEARCH, priority 2006, published 2008).
Entries after “also recorded” stand apart in the source; their conditions may differ. No end group written: not given here. fluorescein = fluorescein label conjugated to the peptide

Columns and labels:
unmutated CLL B cells = experiment: Subtraction biopanning with phage display polypeptide library on unmutated versus mutated CLL B cells; type: binding, human
Procedure: Phages displaying IgVH mutational status-specific polypeptides were isolated. 10^11 plaque forming units (pfu) of PDPL Ph.D.-7 (New England Biolabs, Ipswich, Mass.) were added to 10^6 unmutated CLL B cells suspended in 1 mL of phosphate buffered saline (PBS) containing 0.5% bovine serum albumin (BSA), and the mixture was incubated at room temperature for 1 hour with gentle rocking (FIG. 1A). The cells with attached phages were spun down and washed three times with PBS containing 0.5% BSA (FIG. 1B). The attached phages were then eluted for 20 minutes by adding 1 mL of elution buffer (1% BSA, 0.2 M Glycine-HCl, pH 2.2; FIG. 1C). The elution buffer was neutralized with 0.15 mL of 1 M Tris-HCl (pH 9.1). The eluted phages were precipitated by adding 0.2 mL of a solution containing 20% (w/v) polyethylene glycol 8,000 (Sigma, Saint Louis, Mo.) and 2.5 M NaCl. The eluted phages were then added to a suspension of 10^6 mutated CLL B cells in PBS with 0.5% BSA and incubated with gentle rocking for 40 minutes. The cells with bound phages (FIG. 1D) were spun down, leaving the supernatant containing unbound phages. This latter step was repeated four times to ensure complete subtraction of phages binding to mutated CLL B cells. The unbound phages in the supernatant were titered, amplified and purified as described elsewhere (Nowakowski et al., Stem Cells, 22(6):1030-8 (2004); FIG. 1E). […]

CLL B cells = experiment: Immunofluorescence staining of CLL B cell cytospins with FPSAHFL-displaying phage or fluorescein labelled polypeptide; type: binding, human; conditions: phage plus fluorescent anti-phage antibodies or fluorescein-labelled polypeptide
Text: FIG. 2 contains fluorescence photomicrographs showing binding of the FPSAHFL (SEQ ID NO:2) polypeptide to CLL B cells. CLL B cells were placed on slides by cytospining and were stained with phages displaying the FPSAHFL (SEQ ID NO:2) polypeptide and FITC labeled anti-phage antibody (A and D) or were stained directly with fluorescein conjugated FPSAHFL (SEQ ID NO:2) polypeptide (B, C, and E).
Binding of the FPSAHFL (SEQ ID NO:2) polypeptide to CLL B cells was investigated using immunofluorescence. Cytospins of 10^5 CLL B cells (see, Example 1) were prepared and incubated for 20 minutes at room temperature with phages displaying FPSAHFL (SEQ ID NO:2; 10^8 pfu). The cells were then washed twice with PBS and incubated for 15 minutes at room temperature with 10 μg of mouse anti-M13 phage antibodies (New England Biolabs). The cells were stained for 15 minutes at room temperature with 2 μg of fluorescein isothiocyanate (FITC) labelled secondary anti-mouse antibodies (Vector Laboratories Inc, Burlingame, Calif., USA). Non-displaying M13 phages were used as a control (New England Biolabs) and co-staining with 4′-6-Diamidino-2-phenylindole (DAPI) was used to identify cells. […] The purity of the polypeptide preparation (>99.9%) was assessed by mass spectrometry and high performance liquid chromatography using internal standards.

vimentin [1] = target: T1, vimentin (Homo sapiens, UniProt P08670); experiment: Immunoprecipitation of CLL B cell lysates with FPSAHFL phage and anti-phage antibodies, Western blotting, nano LC-MS/MS target identification; type: binding
T1 construct: CLL B cell lysates were immunoprecipitated using phage and anti-phage antibodies; endogenous in cells; host or cells: primary CLL B cells (patient leukemic cells), total protein lysate
Procedure: (§1) To identify FPSAHFL (SEQ ID NO:2) polypeptide targets, CLL B cell lysates were immunoprecipitated using phage and anti-phage antibodies. Total protein extracts were prepared from primary leukemic cells (see, Example 1) by lysing cells in cold lysis buffer (30 mM Tris-HCl, pH 7.4; 150 mM NaCl; 1% glycerol (v/v); 1% Triton X-100 (v/v); and 2 mM EDTA) in the presence of phosphatase inhibitors (100 mM NaF, 10 mM Na4P2O4, 1 mM Na2VO4), and protease inhibitors (10 μg/mL Leupeptin, 10 μg/mL Pepstatin A, and 1 mM phenylmethylsulfonyl fluoride (PMSF)). After centrifugation to remove cell debris, protein extracts were immunoprecipitated overnight at 4° C. on a rotator with phages displaying FPSAHFL (SEQ ID NO:2; 10^11 pfu[…]), anti-M13 phage antibodies and 40 μL goat anti-mouse IgG-sepharose 4B beads (Zymed, San Francisco, Calif., USA), according to the manufacturer's instructions. The beads were washed three times with lysis buffer, resuspended into a loading buffer and subjected to SDS-PAGE (5%-15%) under reducing conditions. The polypeptide was visualized by Coomassie blue or silver staining. To confirm that the immunoprecipitated polypeptide was indeed the target for FPSAHFL (SEQ ID NO:2) phage, Western blotting was performed using staining with FPSAHFL (SEQ ID NO:2) phage and anti-M13 phage antibodies. Non-displaying phage were used as a control. […]

vimentin [2] = target: T2, vimentin (human (CLL patients), UniProt P08670 2-466); experiment: immunoprecipitation from CLL B cell lysate with phage and anti-M13 antibodies; Western blot with phage
T2 construct: Endogenous protein from total protein extracts of CLL patient cells; It ran on SDS-PAGE under reducing conditions for the Western blot; also called 56 kDa band; immunoprecipitated polypeptide
Procedure: as §1, with “Na₄P₂O₄,” for “Na4P2O4,”, “Na₂VO₄),” for “Na2VO4),”, “10¹¹” for “10^11”

T1 sequence (P08670 whole entry): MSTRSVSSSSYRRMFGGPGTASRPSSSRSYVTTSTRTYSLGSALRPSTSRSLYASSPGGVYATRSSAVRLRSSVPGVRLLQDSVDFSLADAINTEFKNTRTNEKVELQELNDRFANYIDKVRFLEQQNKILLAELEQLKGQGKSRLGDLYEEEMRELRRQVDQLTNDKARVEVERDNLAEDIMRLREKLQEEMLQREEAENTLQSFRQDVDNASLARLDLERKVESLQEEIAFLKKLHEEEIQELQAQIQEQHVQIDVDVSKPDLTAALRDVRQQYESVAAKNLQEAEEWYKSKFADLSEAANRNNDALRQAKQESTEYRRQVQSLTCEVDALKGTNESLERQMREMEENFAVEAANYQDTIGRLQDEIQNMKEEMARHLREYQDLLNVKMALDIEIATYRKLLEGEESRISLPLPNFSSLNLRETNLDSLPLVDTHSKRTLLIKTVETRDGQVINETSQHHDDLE
T2 sequence (P08670 2-466 limits assumed): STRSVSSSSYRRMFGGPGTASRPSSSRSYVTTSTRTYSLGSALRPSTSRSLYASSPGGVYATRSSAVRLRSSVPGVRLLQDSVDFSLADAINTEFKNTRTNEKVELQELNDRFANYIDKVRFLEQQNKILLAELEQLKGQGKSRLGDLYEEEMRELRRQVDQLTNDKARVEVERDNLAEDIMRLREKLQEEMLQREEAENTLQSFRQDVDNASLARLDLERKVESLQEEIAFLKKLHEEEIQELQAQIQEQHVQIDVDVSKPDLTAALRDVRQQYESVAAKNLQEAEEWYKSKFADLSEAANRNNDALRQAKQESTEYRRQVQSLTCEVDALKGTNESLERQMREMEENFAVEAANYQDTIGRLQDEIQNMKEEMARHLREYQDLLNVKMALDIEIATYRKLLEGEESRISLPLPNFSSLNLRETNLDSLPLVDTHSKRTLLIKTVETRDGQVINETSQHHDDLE

| Molecule | Percentage of sequenced single phage colonies encoding the polypeptide (unmutated CLL B cells; fourth round of biopanning) [%] | Percentage of sequenced single phage colonies encoding the polypeptide (unmutated CLL B cells; third round of subtraction biopanning) [%] | Cellular localization of binding (pattern of staining) (CLL B cells) | Target of the polypeptide identified (vimentin [1]; in-gel trypsin digestion, nano LC-MS/MS, Mascot and Sequest) | Band immunoprecipitated from CLL polypeptides (vimentin [1]; phage bearing the polypeptide and anti-phage antibodies, binding confirmed by Western blotting) [kDa] | binding result (vimentin [2]) |
| --- | --- | --- | --- | --- | --- | --- |
| FPSAHFL (fluorescein-FPSAHFL) [also synthesized and fluorescein labelled at the N terminus] | 34 | 20 | localized within the cytoplasm; also recorded: cytoplasmic pattern of staining | vimentin | 56 | – |
| FPSAHFL (peptide, not shown: large carriers, also: displayed on M13 phage coat protein, fusion end not given here, 7-mer selected from the Ph.D.-7 phage display library) [phage displaying the FPSAHFL (SEQ ID NO:2) polypeptide] | – | – | – | – | – | binds |
